From patent US5624923A, “Tricyclic diazepine vasopressin antagonists and oxytocin antagonists” (priority 1995, dated 1997)

Molecular target: T1, oxytocin receptors (Rattus norvegicus, UniProt P70536)
T1 construct: The uteri are dissected out, cleaned of fat and connective tissues; from tissue; host or cells: uterus of DES-treated female Sprague-Dawley rats
T1 sequence (P70536 1-388): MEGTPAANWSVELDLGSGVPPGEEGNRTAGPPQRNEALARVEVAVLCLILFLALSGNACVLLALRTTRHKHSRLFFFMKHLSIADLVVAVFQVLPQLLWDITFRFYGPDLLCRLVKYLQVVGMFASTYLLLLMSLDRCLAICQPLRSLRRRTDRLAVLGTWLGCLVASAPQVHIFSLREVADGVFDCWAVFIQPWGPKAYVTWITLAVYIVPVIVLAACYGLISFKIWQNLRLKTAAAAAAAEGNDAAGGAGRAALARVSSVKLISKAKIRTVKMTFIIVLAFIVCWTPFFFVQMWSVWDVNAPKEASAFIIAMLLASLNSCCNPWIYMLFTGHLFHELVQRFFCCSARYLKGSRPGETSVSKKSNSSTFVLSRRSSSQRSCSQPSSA
Test: Oxytocin Receptor Binding
Details: for IC50: 1.0 nM [3H]oxytocin
Method in brief: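 IC50 is the concentration displacing 50% of 1.0 nM [3H]OT, incubated 60 min at 22 °C in pH 7.4 Tris/MgCl2 buffer plus protease inhibitors, then filtered. Receptor source: uterine membranes from rats given 0.3 mg/kg DES i.m. 18 h earlier. 1.0 uM cold OT defined non-specific binding.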

| Compound | IC50 [µM] | inhibition at 10 µM ([3H]oxytocin) [%] | inhibition at 2.5 µM (dose 2.5 μM, [3H]oxytocin) [%] |
| --- | --- | --- | --- |
| O=C(Nc1ccc(C(=O)N2Cc3cccn3Cc3ccccc32)cc1)C(O)c1ccccc1 (racemic) [Example 588, (±) α-Hydroxy-N-[4-(5H-pyrrolo[2,1c][1,4]benzodiazepin-10(11H)-ylcarbonyl)phenyl]benzeneacetamide] | 2 | 90 |  |
| Cc1ccccc1C(=O)Nc1ccc(C(=O)N2Cc3cccn3Cc3ccccc32)cc1 [Example 3, 2-Methyl-N-[4-(5H-pyrrolo[2,1-c][1,4]-benzodiazepin-10(11H)-ylcarbonyl)phenyl]benzamide] | 0.36 | 90 |  |
| O=C(Nc1ccc(C(=O)N2Cc3cccn3Cc3ccccc32)cc1)c1cc(Cl)ccc1Cl [Example 4, N-[4-(5H-pyrrolo[2,1-c][1,4]benzodiazepin-10(11H)-ylcarbonyl)phenyl]-2,5-dichlorobenzamide] | 0.66 | 98 |  |
| O=C(Nc1ccc(C(=O)N2Cc3cccn3Cc3ccccc32)cc1)c1ccc(Cl)cc1Cl [Example 6, N-[4-(5H-pyrrolo[2,1-c][1,4]benzodiazepin-10(11H)-ylcarbonyl)phenyl]-2,4-dichlorobenzamide] | 0.35 | 92 |  |
| O=C(Nc1ccc(C(=O)N2Cc3cccn3Cc3ccccc32)cc1)c1ccccc1Cl [Example 7] | 0.13 | 97 |  |
| O=C(Nc1ccc(C(=O)N2Cc3cccn3-c3ccccc32)cc1)c1ccc(Cl)cc1Cl [Example 17, N-[4-(pyrrolo(1,2-a]quinoxalin-5(4H)-ylcarbonyl)phenyl]-2,4-dichloro-benzamide] |  | 31 |  |
| CSc1ccccc1C(=O)Nc1ccc(C(=O)N2Cc3cccn3Cc3ccccc32)cc1 [Example 85, N-[4-(5H-Pyrrolo[2,1-c][1,4]benzodiazepin-10(11H)-ylcarbonyl)phenyl]-2-(methylthio)benzamide] | 0.46 | 98 |  |
| Cc1ccccc1CC(=O)Nc1ccc(C(=O)N2Cc3cccn3Cc3ccccc32)cc1 [Example 93, N-[4(5H-Pyrrolo[2,1-c][1,4]benzodiazepin-10(11H)-ylcarbonyl)phenyl]-2-methylbenzeneacetamide] | 0.06 | 87 |  |
| Cc1ccccc1C(=O)Nc1ccc(C(=O)N2Cc3ccnn3Cc3ccccc32)cc1 [Example 210, N-[4-(4H-Pyrazolo[5,1-c][1,4]benzodiazepin-5(10H)-ylcarbonyl)phenyl]-2-methylbenzamide] | 4 | 64 |  |
| O=C(Nc1ccc(C(=O)N2Cc3cccn3Cc3ccccc32)cc1)c1c(Cl)cccc1Cl [Example 469, N-[4-(5H-pyrrolo[2,1-c][1,4]benzodiazepin-10(11H)-ylcarbonyl)phenyl]-2,6-dichlorobenzamide] | 0.265 | 96 |  |
| Cc1ccccc1C(=O)Nc1ccc(C(=O)N2Cc3cccn3Cc3ccccc32)c(Cl)c1 [Example 470] | 0.22 |  | 92 |
| O=C(Nc1ccc(C(=O)N2Cc3cccn3Cc3ccccc32)c(Cl)c1)c1ccc(Cl)cc1Cl [Example 471] | 0.35 | 99 |  |
| Cc1ccccc1C(=O)Nc1c(C)cc(C(=O)N2Cc3cccn3Cc3ccccc32)cc1C [Example 472] |  | 0 |  |
| O=C(Nc1ccc(C(=O)N2Cc3cccn3Cc3ccccc32)cc1)c1cccc(C(F)(F)F)c1 [Example 474, N-[4-(5H-pyrrolo[2,1-c][1,4]benzodiazepin-10(11H)-ylcarbonyl)phenyl]-3-(trifluoromethyl)benzamide] |  | 18 |  |
| O=C(Nc1ccc(C(=O)N2Cc3cccn3Cc3ccccc32)cc1)c1sccc1Cl [Example 476, N-[4-(5H-pyrrolo[2,1-c][1,4]benzodiazepin-10(11H)-ylcarbonyl)phenyl]-3-chlorothiophene-2-carboxamide] | 0.82 | 94 |  |
| COc1cc(C(=O)N2Cc3cccn3Cc3ccccc32)ccc1NC(=O)c1cccc(F)c1C [Example 479, N-[4-(5H-pyrrolo[2,1-c][1,4]benzodiazepin-10(11H)-ylcarbonyl)-2-methoxy-phenyl]-3-fluoro-2-methylbenzamide] | 0.15 | 76 |  |

| Compound | IC50 [µM] | inhibition at 10 µM ([3H]oxytocin) [%] | inhibition at 2.5 µM (dose 2.5 μM, [3H]oxytocin) [%] |
| --- | --- | --- | --- |
| Cc1c(F)cccc1C(=O)Nc1ccc(C(=O)N2Cc3cccn3Cc3ccccc32)c(Cl)c1 [Example 481, N-[4-(5H-pyrrolo[2,1-c][1,4]benzodiazepin-10(11H)-ylcarbonyl)-3-chlorophenyl]-3-fluoro-2-methylbenzamide] | 0.24 | 88 |  |
| Cc1ccc(F)cc1C(=O)Nc1ccc(C(=O)N2Cc3cccn3Cc3ccccc32)c(Cl)c1 [Example 482, N-[4-(5H-pyrrolo[2,1-c][1,4]benzodiazepin-10(11H)-ylcarbony)-3-chlorophenyl]-5-fluoro-2-methylbenzamide] | 0.126 | 97 |  |
| Cc1cccc(NC(=O)c2ccc(C(=O)N3Cc4cccn4Cc4ccccc43)cc2)c1C [Example 485, N-(2,3-Dimethylphenyl)-4-(5H-pyrrolo[2,1-c][1,4]benzodiazepin-10(11H)-ylcarbonyl)benzamide] | 2.2 | 86 |  |
| COC(=O)c1ccc(C(=O)Nc2ccc(C(=O)N3Cc4cccn4Cc4ccccc43)cc2)cc1 [Example 489] |  | 44 |  |
| CN(C)CN(C(=O)c1ccc(Cl)cc1Cl)c1ccc(C(=O)N2Cc3cccn3Cc3ccccc32)cc1 [Example 490, N-[(Dimethylamino)methyl]-N-[4-(5H-pyrrolo[2,1-c][1,4]benzodiazepin-10(11H)-ylcarbonyl)phenyl]-2,4-dichlorobenzamide] | 0.3 | 99 |  |
| Cc1c(F)cccc1C(=O)Nc1ccc(C(=O)N2Cc3ccnn3Cc3ccccc32)cc1 [Example 517, N-[4-(4H-Pyrazolo[5,1-c][1,4]benzodiazepin-5(10H)-ylcarbonyl)phenyl]-3-fluoro-2-methylbenzamide] | 0.32 | 91 |  |
| Cc1ccccc1C(=O)Nc1ccc(C(=O)N2Cc3cccn3Cc3ccccc32)cc1Cl [Example 530, N-[4-(5H-Pyrrolo[2,1-c][1,4]benzodiazepin-10(11H)-ylcarbonyl)-2-chlorophenyl]-2-methylbenzamide] | 0.31 | 99 |  |
| O=C(Nc1ccc(C(=O)N2Cc3ccc(CO)n3Cc3ccccc32)cc1)c1ccc(Cl)cc1Cl [Example 581, 2,4-Dichloro-N-[4-[[3-(hydroxymethyl)-5H-pyrrolo[2,1-c][1,4]benzodiazepin-10(11H)-yl]carbonyl]phenyl]benzamide] | 0.2 | 99 |  |
| O=C(Nc1ccc(C(=O)N2Cc3ccc(Cn4ccnc4)n3Cc3ccccc32)cc1)c1ccc(Cl)cc1Cl [Example 582, 2,4-Dichloro-N-[4-[[3-(1H-imidazol-1-ylmethyl)-5H-pyrrolo[2,1-c][1,4]benzodiazepin-10(11H)-yl]carbonyl]phenyl]benzamide] | 0.675 | 96 |  |
| NC(=O)CNC(C(=O)Nc1ccc(C(=O)N2Cc3cccn3Cc3ccccc32)cc1)c1ccccc1 (stereo not drawn) [Example 585] | 4.7 | 70 |  |
| CC(=O)OC(C(=O)Nc1ccc(C(=O)N2Cc3cccn3Cc3ccccc32)cc1)c1ccccc1 (stereo not drawn) [Example 587, α-(Acetyloxy)-N-[4-(5H-pyrrolo[2,1-c][1,4]benzodiazepin-10(11H)-ylcarbonyl)phenyl]benzeneacetamide] | 8 | 56 |  |
| O=C(CN1CCOCC1)Nc1ccc(C(=O)N2Cc3cccn3Cc3ccccc32)cc1 [Example 590, N-[4-(5H-pyrrolo[2,1-c][1,4]benzodiazepin-10(11H)-ylcarbonyl)phenyl]-4-morpholineacetamide] |  | 12 |  |
| COC(=O)c1ccc2n1Cc1ccccc1N(C(=O)c1ccc(NC(=O)c3ccc(Cl)cc3Cl)cc1)C2 [Example 593] | 1.1 | 82 |  |
| O=C(Nc1ccc(C(=O)N2Cc3ccc(C(=O)C(F)(F)F)n3Cc3ccccc32)cc1)c1ccccc1C(F)(F)F [Example 594] |  | 19 |  |
| Cc1ccccc1C(=O)Nc1ccc(C(=O)N2Cc3ccc(C(=O)C(F)(F)F)n3Cc3ccccc32)c(Cl)c1 [Example 595, N-[4-[[3-(Trifluoroacetyl)-5H-pyrrolo[2,1-c][1,4]benzodiazepin-10(11H)-yl]carbonyl]-3-chlorophenyl]-2-methylbenzamide] |  | 49 |  |
| O=C(Nc1ccc(C(=O)N2Cc3cccn3Cc3ccccc32)cc1)c1cc(Cl)cc(Cl)c1Cl [Example 599, N-[4-(5H-Pyrrolo[2,1-c][1,4]benzodiazepin-10(11H)-ylcarbonyl)phenyl]-2,3,5-trichlorobenzamide] | 0.35 | 92 |  |
